Results published in ChEMBL document CHEMBL1201862, “PubChem BioAssay data set” (2004).
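In this assay, cells in 96-well plates receive the compound at five concentrations for 48 hours. Endpoints are linearly interpolated between the surrounding concentrations. GI50 marks 50% less growth.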 Calls of active or inactive are those of the source. Rule as the data show it: active = GI50 up to about 1.1 µM and inactive = higher.

Legend:
Assay in all cases: NCI anticancer screen, dose series, 48 h
M14 = tested on: M14
COLO 205 = tested on: COLO 205
SW-620 = tested on: SW-620
SK-MEL-2 = tested on: SK-MEL-2
SF-539 = tested on: SF-539
EKVX = tested on: EKVX
NCI-H460 = tested on: NCI-H460
SK-MEL-5 = tested on: SK-MEL-5
U-251 = tested on: U-251
TK-10 = tested on: TK-10
786-0 = tested on: 786-0
SN12C = tested on: SN12C
HT-29 = tested on: HT-29
OVCAR-5 = tested on: OVCAR-5
NCI-H23 = tested on: NCI-H23
HCT-116 = tested on: HCT-116
HCT-15 = tested on: HCT-15
NCI-H522 = tested on: NCI-H522

## C[n+]1cn(CC(=O)c2ccccc2)c(C(N)=O)c1N
M14
  GI50: > 100 µM (inactive)
COLO 205
  GI50: 41.4 µM (inactive)
SW-620
  GI50: 11 µM (inactive)
SK-MEL-2
  GI50: > 100 µM (inactive)
SF-539
  GI50: > 100 µM (inactive)
EKVX
  GI50: > 100 µM (inactive)
NCI-H460
  GI50: > 100 µM (inactive)
SK-MEL-5
  GI50: 33 µM (inactive)
U-251
  GI50: 94.6 µM (inactive)
TK-10
  GI50: > 100 µM (inactive)
786-0
  GI50: 43.7 µM (inactive)
SN12C
  GI50: > 100 µM (inactive)
HT-29
  GI50: > 100 µM (inactive)
OVCAR-5
  GI50: > 100 µM (inactive)
NCI-H23
  GI50: > 100 µM (inactive)
HCT-116
  GI50: 24.2 µM (inactive)
HCT-15
  GI50: 80.7 µM
NCI-H522
  GI50: 77.6 µM (inactive)

## N#CC(C(=O)CCCC(=O)Nc1ccccc1[N+](=O)[O-])c1c(Cl)cccc1Cl (stereo not given)
M14
  GI50: > 100 µM (inactive)
COLO 205
  GI50: > 100 µM (inactive)
SW-620
  GI50: > 100 µM (inactive)
SK-MEL-2
  GI50: > 100 µM (inactive)
SF-539
  GI50: > 100 µM (inactive)
EKVX
  GI50: > 100 µM (inactive)
NCI-H460
  GI50: > 100 µM (inactive)
SK-MEL-5
  GI50: > 100 µM (inactive)
U-251
  GI50: > 100 µM (inactive)
TK-10
  GI50: > 100 µM (inactive)
786-0
  GI50: > 100 µM (inactive)
SN12C
  GI50: > 100 µM (inactive)
HT-29
  GI50: > 100 µM (inactive)
OVCAR-5
  GI50: > 100 µM (inactive)
NCI-H23
  GI50: > 100 µM (inactive)
HCT-116
  GI50: > 100 µM (inactive)
HCT-15
  GI50: > 100 µM
NCI-H522
  GI50: > 100 µM (inactive)

## CC(C)(C)CC(C)(C)c1cc2c(O)c(c1)Cc1cc(C(C)(C)CC(C)(C)C)cc(c1O)Cc1cc(C(C)(C)CC(C)(C)C)cc(c1O)Cc1cc(C(C)(C)CC(C)(C)C)cc(c1O)Cc1cc(C(C)(C)CC(C)(C)C)cc(c1O)C2
M14
  GI50: > 100 µM (inactive)
COLO 205
  GI50: > 100 µM (inactive)
SW-620
  GI50: > 100 µM (inactive)
SK-MEL-2
  GI50: > 100 µM (inactive)
SF-539
  GI50: > 100 µM (inactive)
EKVX
  GI50: > 100 µM (inactive)
NCI-H460
  GI50: > 100 µM (inactive)
SK-MEL-5
  GI50: > 100 µM (inactive)
U-251
  GI50: > 100 µM (inactive)
TK-10
  GI50: > 100 µM (inactive)
786-0
  GI50: > 100 µM (inactive)
SN12C
  GI50: > 100 µM (inactive)
HT-29
  GI50: > 100 µM (inactive)
OVCAR-5
  GI50: > 100 µM (inactive)
NCI-H23
  GI50: > 100 µM (inactive)
HCT-116
  GI50: > 100 µM (inactive)
HCT-15
  GI50: > 100 µM
NCI-H522
  GI50: > 100 µM (inactive)

## Cc1ccc(C)c(N2C(=O)C(=O)C(c3nc4ccccc4s3)/C(=N/N)C2=O)c1 (stereo not given)
M14
  GI50: > 100 µM (inactive)
COLO 205
  GI50: > 39.3 µM (inactive)
SW-620
  GI50: > 100 µM (inactive)
SK-MEL-2
  GI50: > 100 µM (inactive)
SF-539
  GI50: > 100 µM (inactive)
EKVX
  GI50: > 100 µM (inactive)
NCI-H460
  GI50: > 100 µM (inactive)
SK-MEL-5
  GI50: > 100 µM (inactive)
U-251
  GI50: > 100 µM (inactive)
TK-10
  GI50: > 100 µM (inactive)
786-0
  GI50: > 100 µM (inactive)
SN12C
  GI50: > 100 µM (inactive)
HT-29
  GI50: > 100 µM (inactive)
OVCAR-5
  GI50: > 100 µM (inactive)
NCI-H23
  GI50: > 80.5 µM (inactive)
HCT-116
  GI50: > 34.4 µM (inactive)
HCT-15
  GI50: > 100 µM
NCI-H522
  GI50: > 100 µM (inactive)

## O=C(O)Cc1ccc2c(c1O)C(=O)c1c(ccc(CC(=O)O)c1O)C2=O
M14
  GI50: > 100 µM (inactive)
COLO 205
  GI50: > 100 µM (inactive)
SW-620
  GI50: > 100 µM (inactive)
SK-MEL-2
  GI50: > 100 µM (inactive)
SF-539
  GI50: > 100 µM (inactive)
EKVX
  GI50: > 100 µM (inactive)
NCI-H460
  GI50: > 100 µM (inactive)
SK-MEL-5
  GI50: > 100 µM (inactive)
U-251
  GI50: > 100 µM (inactive)
TK-10
  GI50: > 100 µM (inactive)
786-0
  GI50: > 100 µM (inactive)
SN12C
  GI50: > 100 µM (inactive)
HT-29
  GI50: > 100 µM (inactive)
OVCAR-5
  GI50: > 100 µM (inactive)
NCI-H23
  GI50: > 100 µM (inactive)
HCT-116
  GI50: > 100 µM (inactive)
HCT-15
  GI50: > 100 µM
NCI-H522
  GI50: > 100 µM (inactive)

## COC(=O)/C(=N/O)C(C(=O)C=C(C)C)C(=O)C(=O)Nc1nc2ccc([N+](=O)[O-])cc2s1 (stereo not given)
M14
  GI50: 54.7 µM (inactive)
COLO 205
  GI50: 41.6 µM (inactive)
SW-620
  GI50: 33.8 µM (inactive)
SK-MEL-2
  GI50: 25.8 µM (inactive)
SF-539
  GI50: 23.2 µM (inactive)
EKVX
  GI50: 16.7 µM (inactive)
NCI-H460
  GI50: 37.9 µM (inactive)
SK-MEL-5
  GI50: 43.8 µM (inactive)
U-251
  GI50: 49.5 µM (inactive)
TK-10
  GI50: 27.3 µM (inactive)
786-0
  GI50: 37.3 µM (inactive)
SN12C
  GI50: 32.2 µM (inactive)
HT-29
  GI50: 59.7 µM (inactive)
OVCAR-5
  GI50: 37.7 µM (inactive)
NCI-H23
  GI50: 25.2 µM (inactive)
HCT-116
  GI50: 41.7 µM (inactive)
HCT-15
  GI50: 30.7 µM
NCI-H522
  GI50: 32.1 µM (inactive)

## Cc1cc(NS(=O)(=O)c2ccc(Nc3c4ccccc4nc4c(C(=O)Nc5ccc(S(=O)(=O)N=C(N)N)cc5)cccc34)cc2)no1
M14
  GI50: > 100 µM (inactive)
COLO 205
  GI50: > 100 µM (inactive)
SW-620
  GI50: > 100 µM (inactive)
SK-MEL-2
  GI50: > 100 µM (inactive)
SF-539
  GI50: > 100 µM (inactive)
EKVX
  GI50: > 100 µM (inactive)
NCI-H460
  GI50: > 100 µM (inactive)
SK-MEL-5
  GI50: > 100 µM (inactive)
U-251
  GI50: > 100 µM (inactive)
TK-10
  GI50: > 100 µM (inactive)
786-0
  GI50: > 100 µM (inactive)
SN12C
  GI50: > 100 µM (inactive)
HT-29
  GI50: > 100 µM (inactive)
OVCAR-5
  GI50: > 100 µM (inactive)
NCI-H23
  GI50: > 100 µM (inactive)
HCT-116
  GI50: > 100 µM (inactive)
HCT-15
  GI50: > 100 µM
NCI-H522
  GI50: > 100 µM (inactive)

## Cc1c(OCCCOc2ccc3c(=O)cc(-c4ccccc4)oc3c2C)ccc2c(=O)cc(-c3ccccc3)oc12
M14
  GI50: > 100 µM (inactive)
SW-620
  GI50: > 100 µM (inactive)
SK-MEL-2
  GI50: > 100 µM (inactive)
SF-539
  GI50: > 100 µM (inactive)
EKVX
  GI50: > 100 µM (inactive)
NCI-H460
  GI50: > 100 µM (inactive)
SK-MEL-5
  GI50: > 100 µM (inactive)
U-251
  GI50: > 100 µM (inactive)
TK-10
  GI50: > 100 µM (inactive)
786-0
  GI50: > 100 µM (inactive)
HT-29
  GI50: > 100 µM (inactive)
OVCAR-5
  GI50: > 100 µM (inactive)
NCI-H23
  GI50: > 100 µM (inactive)
HCT-116
  GI50: > 100 µM (inactive)
HCT-15
  GI50: > 100 µM
NCI-H522
  GI50: > 100 µM (inactive)

## O=C(C#Cc1ccccc1)N1c2ccccc2CC1c1c[nH]c2ccccc12 (stereo not given)
M14
  GI50: 15 µM (inactive)
COLO 205
  GI50: 14.5 µM (inactive)
SW-620
  GI50: 15.3 µM (inactive)
SK-MEL-2
  GI50: 12.5 µM (inactive)
SF-539
  GI50: 13 µM (inactive)
EKVX
  GI50: 15.4 µM (inactive)
NCI-H460
  GI50: 18.6 µM (inactive)
SK-MEL-5
  GI50: 14.4 µM (inactive)
U-251
  GI50: 17.5 µM (inactive)
TK-10
  GI50: 21.4 µM (inactive)
786-0
  GI50: 16.2 µM (inactive)
SN12C
  GI50: 13 µM (inactive)
HT-29
  GI50: 18 µM (inactive)
OVCAR-5
  GI50: 24.8 µM (inactive)
NCI-H23
  GI50: 12.6 µM (inactive)
HCT-116
  GI50: 13.4 µM (inactive)
HCT-15
  GI50: 11.5 µM
NCI-H522
  GI50: 11 µM (inactive)

## COc1ccc2c3c([nH]c(=O)c2c1C(=O)O)-c1ccccc1CC3
M14
  GI50: > 100 µM (inactive)
COLO 205
  GI50: > 100 µM (inactive)
SW-620
  GI50: > 100 µM (inactive)
SK-MEL-2
  GI50: > 100 µM (inactive)
SF-539
  GI50: > 100 µM (inactive)
EKVX
  GI50: 49.7 µM (inactive)
NCI-H460
  GI50: > 100 µM (inactive)
SK-MEL-5
  GI50: > 100 µM (inactive)
U-251
  GI50: > 100 µM (inactive)
TK-10
  GI50: > 100 µM (inactive)
786-0
  GI50: > 100 µM (inactive)
SN12C
  GI50: > 100 µM (inactive)
HT-29
  GI50: > 100 µM (inactive)
OVCAR-5
  GI50: > 100 µM (inactive)
NCI-H23
  GI50: > 100 µM (inactive)
HCT-116
  GI50: > 100 µM (inactive)
HCT-15
  GI50: > 100 µM
NCI-H522
  GI50: > 100 µM (inactive)

## COC1CC(O[C@H]2CC[C@@]3(C)C(=CCC4(O)C3CCC35C(=O)OC6(C)O[C@@]43CCC65)C2)OC(C)C1O (stereo not given in full)
M14
  GI50: > 100 µM (inactive)
COLO 205
  GI50: > 100 µM (inactive)
SK-MEL-2
  GI50: > 100 µM (inactive)
SF-539
  GI50: > 100 µM (inactive)
EKVX
  GI50: > 100 µM (inactive)
NCI-H460
  GI50: > 100 µM (inactive)
SK-MEL-5
  GI50: > 100 µM (inactive)
U-251
  GI50: > 100 µM (inactive)
TK-10
  GI50: > 100 µM (inactive)
786-0
  GI50: > 100 µM (inactive)
SN12C
  GI50: > 100 µM (inactive)
HT-29
  GI50: > 100 µM (inactive)
OVCAR-5
  GI50: > 100 µM (inactive)
NCI-H23
  GI50: > 100 µM (inactive)
HCT-116
  GI50: > 100 µM (inactive)
HCT-15
  GI50: > 100 µM
NCI-H522
  GI50: > 100 µM (inactive)
